Results: BindingDB's records for doi:10.1111/cbdd.12675 (Quaid-I-Azam University, 2016)

What follows are molecules tested against Urease (Canavalia ensiformis, UniProt P07374) (assay: Urease Inhibition Assay). Conditions: pH 8.2.
Method: The urease inhibitory activity of synthesized sulfonamides (3a-j) was determined by measuring the amount of ammonia produced by the indophenols method described byWeatherburn (27,28). The reaction mixtures, comprising 20 µL of enzyme (Jack bean urease, 5 U/mL) and 20 µL of test compounds in 50 µL buffer (100 mM urea, 0.01 MK2HPO4, 1 mM EDTA and 0.01 M […], pH 8.2), were incubated for 10 min at 37 °C in 96-well plate. Briefly, 40 µL each of phenol reagents (1%, w/v phenol and0.005%, w/v sodium nitroprusside) and 70 µL of alkali reagent (0.5%, w/v NaOH and 0.1% active chloride NaOCl) were added to each well. […] All reactions were performed in triplicate.

Urease, sequence (P07374 whole entry): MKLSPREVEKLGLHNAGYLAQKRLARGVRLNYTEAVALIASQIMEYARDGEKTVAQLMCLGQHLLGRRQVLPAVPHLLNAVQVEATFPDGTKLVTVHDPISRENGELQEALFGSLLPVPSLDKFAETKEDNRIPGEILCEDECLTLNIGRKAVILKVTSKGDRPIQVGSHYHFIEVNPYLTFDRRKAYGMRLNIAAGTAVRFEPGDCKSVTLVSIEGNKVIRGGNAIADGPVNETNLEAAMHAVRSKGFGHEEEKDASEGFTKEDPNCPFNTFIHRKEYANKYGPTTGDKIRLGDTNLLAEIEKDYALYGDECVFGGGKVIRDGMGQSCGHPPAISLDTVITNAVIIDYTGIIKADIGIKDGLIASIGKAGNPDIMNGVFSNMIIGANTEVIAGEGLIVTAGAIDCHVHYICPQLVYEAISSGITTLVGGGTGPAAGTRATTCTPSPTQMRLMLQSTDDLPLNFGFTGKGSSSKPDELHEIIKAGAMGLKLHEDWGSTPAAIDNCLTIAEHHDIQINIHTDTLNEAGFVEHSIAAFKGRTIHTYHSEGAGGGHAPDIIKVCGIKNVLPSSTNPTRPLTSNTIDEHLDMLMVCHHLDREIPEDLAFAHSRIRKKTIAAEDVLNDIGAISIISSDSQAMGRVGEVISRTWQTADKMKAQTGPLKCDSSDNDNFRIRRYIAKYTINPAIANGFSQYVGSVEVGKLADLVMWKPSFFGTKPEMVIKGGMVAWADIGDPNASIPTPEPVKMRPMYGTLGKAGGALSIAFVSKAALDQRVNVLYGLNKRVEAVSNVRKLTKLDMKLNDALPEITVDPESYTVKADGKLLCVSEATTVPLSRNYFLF

`Cc1cs/c(=N\C(=O)c2ccccc2)n1-c1ccc(S(N)(=O)=O)cc1` [(Z)-N-(3-(4-aminosulfonylphenyl)-4-methylthiazol-2(3H)-ylidene) benzamide (3a)] and `Cc1ccccc1C(=O)/N=c1\scc(C)n1-c1ccc(S(N)(=O)=O)cc1` [(Z)-N-(3-(4-aminosulfonylphenyl)-4-methylthiazol-2(3H)-ylidene)-2-methylbenzamide (3b)] are within 1.5-fold of each other in IC50: 96 nM for the first, 87 nM for the second.

`Cc1cs/c(=N\C(=O)c2ccco2)n1-c1ccc(S(N)(=O)=O)cc1` [(Z)-N-(3-(4-aminosulfonylphenyl)-4-methylthiazol-2(3H)-ylidene) furan-2-carboxamide (3j)] and `Cc1cs/c(=N\C(=O)c2cccc(F)c2)n1-c1ccc(S(N)(=O)=O)cc1` [(Z)-N-(3-(4-aminosulfonylphenyl)-4-methylthiazol-2(3H)-ylidene)-3-fluorobenzamide (3h)] are within 1.5-fold of each other in IC50: 83 nM for the first, 64 nM for the second.

`Cc1cs/c(=N\C(=O)c2ccc([N+](=O)[O-])cc2Cl)n1-c1ccc(S(N)(=O)=O)cc1` [(Z)-N-(3-(4-aminosulfonylphenyl)-4-methylthiazol-2(3H)-ylidene)-2-chloro-4-nitrobenzamide (3i)] and `Cc1cs/c(=N\C(=O)c2ccc([N+](=O)[O-])cc2)n1-c1ccc(S(N)(=O)=O)cc1` [(Z)-N-(3-(4-aminosulfonylphenyl)-4-methylthiazol-2(3H)-ylidene)-4-nitrobenzamide (3e)] are within 1.5-fold of each other in IC50: 58 nM for the first, 83 nM for the second.

First: Cc1cs/c(=N\C(=O)c2ccccc2[N+](=O)[O-])n1-c1ccc(S(N)(=O)=O)cc1 [(Z)-N-(3-(4-aminosulfonylphenyl)-4-methylthiazol-2(3H)-ylidene)-2-nitrobenzamide (3f)]
Second: Cc1cccc(C(=O)/N=c2\scc(C)n2-c2ccc(S(N)(=O)=O)cc2)c1 [(Z)-N-(3-(4-aminosulfonylphenyl)-4-methylthiazol-2(3H)-ylidene)-3-methylbenzamide (3c)]
The IC50 of the first is 4-fold higher: 350 nM for the first, 87 nM for the second.

`COc1cccc(C(=O)/N=c2\scc(C)n2-c2ccc(S(N)(=O)=O)cc2)c1` [(Z)-N-(3-(4-aminosulfonylphenyl)-4-methylthiazol-2(3H)-ylidene)-3-methoxybenzamide (3g)] and `Cc1ccc(C(=O)/N=c2\scc(C)n2-c2ccc(S(N)(=O)=O)cc2)cc1` [(Z)-N-(3-(4-aminosulfonylphenyl)-4-methylthiazol-2(3H)-ylidene)-4-methylbenzamide (3d)] are within 1.5-fold of each other in IC50: 81 nM for the first, 72 nM for the second.
